Assay results: patent US6518243B1, “Desleucyl glycopeptide antibiotics and methods of making same” (Trustees of Princeton University, priority 1999, dated 2003)

Legend:
Experiment in all cases: Zone of inhibition screen, 96 well agar array format
Type in all cases: cell-based
Parameters in all cases: scale not given here
[1] = test system: E. faecalis (CL 4877)
Outline: (§1)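 Panel screening of every compound against several bacterial strains, among them E. faecium ATCC 49624, was done in a 96-well agar array.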

[2] = test system: S. epidermidis (ATCC 12228)
Outline: as §1

[3] = test system: S. aureus (ATCC 29213); conditions: zone of inhibition relative to 1 mg/ml p-chlorobiphenylvancomycin
Outline: as §1

[4] = zone of inhibition relative to 1 mg/ml p-chlorobiphenylvancomycin
[5] = zone of inhibition relative to 1 mg/ml stock solution of p-chlorobiphenylvancomycin

Row | SMILES | zone score, E. faecalis CL 4877 [1, 4] | zone score, S. epidermidis ATCC 12228 [2, 4] | zone score, S. aureus ATCC 29213 [3] | also measured
1 | CC(NC=O)C(=O)NC1C(=O)NC(CC(N)=O)C(=O)NC2C(=O)NC3C(=O)NC(C(=O)NC(C(=O)O)c4cc(O)cc(O)c4-c4cc3ccc4O)C(O)c3ccc(c(Cl)c3)Oc3cc2cc(c3OC2OC(CO)C(O)C(O)C2OC2CC(C)(NCc3ccc(-c4ccc(Cl)cc4)cc3)C(O)C(C)O2)Oc2ccc(cc2Cl)C1O (mixture of isomers) [Compound 325] | 2 | 2 | – | –
2 | CC1OC(OC2C(Oc3c4cc5cc3Oc3ccc(cc3Cl)C(O)C3NC(=O)C(NC(=O)C5NC(=O)C(CC(N)=O)NC(=O)C(NC(=O)C(N)CC(N)=O)C(O)c5ccc(c(Cl)c5)O4)c4ccc(O)c(c4)-c4c(O)cc(O)cc4C(C(=O)O)NC3=O)OC(CO)C(O)C2O)CC(C)(NCc2ccc(-c3ccc(Cl)cc3)cc2)C1O (stereo not shown) [Compound 53] | – | – | – | zone score, E. faecalis CL 4877 [1, 5]: 2; zone score, S. epidermidis ATCC 12228 [2, 5]: 2
3 | CC(=O)N1CCC(C(=O)NC2C(=O)NC(CC(N)=O)C(=O)NC3C(=O)NC4C(=O)NC(C(=O)NC(C(=O)O)c5cc(O)cc(O)c5-c5cc4ccc5O)C(O)c4ccc(c(Cl)c4)Oc4cc3cc(c4OC3OC(CO)C(O)C(O)C3OC3CC(C)(NCc4ccc(-c5ccc(Cl)cc5)cc4)C(O)C(C)O3)Oc3ccc(cc3Cl)C2O)CC1 (stereo not shown) [Compound 99] | – | – | – | zone score, S. epidermidis ATCC 12228 [2, 5]: 2
4 | CC1OC(OC2C(Oc3c4cc5cc3Oc3ccc(cc3Cl)C(O)C3NC(=O)C(NC(=O)C5NC(=O)C(CC(N)=O)NC(=O)C(NC(=O)C[N+](C)(C)C)C(O)c5ccc(c(Cl)c5)O4)c4ccc(O)c(c4)-c4c(O)cc(O)cc4C(C(=O)O)NC3=O)OC(CO)C(O)C2O)CC(C)(NCc2ccc(-c3ccc(Cl)cc3)cc2)C1O (stereo not shown) [Compound 129] | – | – | – | zone score, E. faecalis CL 4877 [1, 5]: 2; zone score, S. epidermidis ATCC 12228 [2, 5]: 2
5 | Cc1cn(CC(=O)NC2C(=O)NC(CC(N)=O)C(=O)NC3C(=O)NC4C(=O)NC(C(=O)NC(C(=O)O)c5cc(O)cc(O)c5-c5cc4ccc5O)C(O)c4ccc(c(Cl)c4)Oc4cc3cc(c4OC3OC(CO)C(O)C(O)C3OC3CC(C)(NCc4ccc(-c5ccc(Cl)cc5)cc4)C(O)C(C)O3)Oc3ccc(cc3Cl)C2O)c(=O)[nH]c1=O (stereo not shown) [Compound 207] | – | 2 | – | –
6 | CC(=O)Oc1cc(C(=O)NC2C(=O)NC(CC(N)=O)C(=O)NC3C(=O)NC4C(=O)NC(C(=O)NC(C(=O)O)c5cc(O)cc(O)c5-c5cc4ccc5O)C(O)c4ccc(c(Cl)c4)Oc4cc3cc(c4OC3OC(CO)C(O)C(O)C3OC3CC(C)(NCc4ccc(-c5ccc(Cl)cc5)cc4)C(O)C(C)O3)Oc3ccc(cc3Cl)C2O)cc(OC(C)=O)c1OC(C)=O (stereo not shown) [Compound 250] | – | 2 | – | –
7 | CC1OC(OC2C(Oc3c4cc5cc3Oc3ccc(cc3Cl)C(O)C3NC(=O)C(NC(=O)C5NC(=O)C(CC(N)=O)NC(=O)C(NC(=O)Cc5ccc(F)c(F)c5)C(O)c5ccc(c(Cl)c5)O4)c4ccc(O)c(c4)-c4c(O)cc(O)cc4C(C(=O)O)NC3=O)OC(CO)C(O)C2O)CC(C)(NCc2ccc(-c3ccc(Cl)cc3)cc2)C1O (stereo not shown) [Compound 252] | – | 2 | – | –
8 | CC1OC(OC2C(Oc3c4cc5cc3Oc3ccc(cc3Cl)C(O)C3NC(=O)C(NC(=O)C5NC(=O)C(CC(N)=O)NC(=O)C(NC(=O)c5cc(C(F)(F)F)cc(C(F)(F)F)c5)C(O)c5ccc(c(Cl)c5)O4)c4ccc(O)c(c4)-c4c(O)cc(O)cc4C(C(=O)O)NC3=O)OC(CO)C(O)C2O)CC(C)(NCc2ccc(-c3ccc(Cl)cc3)cc2)C1O (stereo not shown) [Compound 254] | 2 | – | 2 | –
9 | CC1OC(OC2C(Oc3c4cc5cc3Oc3ccc(cc3Cl)C(O)C3NC(=O)C(NC(=O)C5NC(=O)C(CC(N)=O)NC(=O)C(NC(=O)c5cc(O)cc(O)c5)C(O)c5ccc(c(Cl)c5)O4)c4ccc(O)c(c4)-c4c(O)cc(O)cc4C(C(=O)O)NC3=O)OC(CO)C(O)C2O)CC(C)(NCc2ccc(-c3ccc(Cl)cc3)cc2)C1O (stereo not shown) [Compound 255] | 2 | – | 2 | –
10 | C[C@H]1O[C@H](O[C@H]2[C@H](Oc3c4cc5cc3Oc3ccc(cc3Cl)[C@@H](O)[C@@H](NC(=O)c3nc(N)n[nH]3)C(=O)N[C@@H](CC(N)=O)C(=O)N[C@H]5C(=O)N[C@H]3C(=O)N[C@H](C(=O)N[C@@H](C(=O)O)c5cc(O)cc(O)c5-c5cc3ccc5O)[C@H](O)c3ccc(c(Cl)c3)O4)O[C@H](CO)[C@@H](O)[C@@H]2O)C[C@@](C)(NCc2ccc(-c3ccc(Cl)cc3)cc2)[C@H]1O [Compound 256] | 2 | – | 2 | –
11 | CC1OC(OC2C(Oc3c4cc5cc3Oc3ccc(cc3Cl)C(O)C3NC(=O)C(NC(=O)C5NC(=O)C(CC(N)=O)NC(=O)C(NC(=O)c5cccc(F)c5)C(O)c5ccc(c(Cl)c5)O4)c4ccc(O)c(c4)-c4c(O)cc(O)cc4C(C(=O)O)NC3=O)OC(CO)C(O)C2O)CC(C)(NCc2ccc(-c3ccc(Cl)cc3)cc2)C1O (stereo not shown) [Compound 259] | – | 2 | – | –
12 | C[C@H]1O[C@H](O[C@H]2[C@H](Oc3c4cc5cc3Oc3ccc(cc3Cl)[C@@H](O)[C@@H](NC(=O)c3ccoc3)C(=O)N[C@@H](CC(N)=O)C(=O)N[C@H]5C(=O)N[C@H]3C(=O)N[C@H](C(=O)N[C@@H](C(=O)O)c5cc(O)cc(O)c5-c5cc3ccc5O)[C@H](O)c3ccc(c(Cl)c3)O4)O[C@H](CO)[C@@H](O)[C@@H]2O)C[C@@](C)(NCc2ccc(-c3ccc(Cl)cc3)cc2)[C@H]1O [Compound 260] | – | 2 | – | –
13 | CC(=O)Nc1ccc(C(=O)NC2C(=O)NC(CC(N)=O)C(=O)NC3C(=O)NC4C(=O)NC(C(=O)NC(C(=O)O)c5cc(O)cc(O)c5-c5cc4ccc5O)C(O)c4ccc(c(Cl)c4)Oc4cc3cc(c4OC3OC(CO)C(O)C(O)C3OC3CC(C)(NCc4ccc(-c5ccc(Cl)cc5)cc4)C(O)C(C)O3)Oc3ccc(cc3Cl)C2O)cc1 (stereo not shown) [Compound 265] | 2 | – | 2 | –
14 | COc1ccc(C=CC(=O)NC2C(=O)NC(CC(N)=O)C(=O)NC3C(=O)NC4C(=O)NC(C(=O)NC(C(=O)O)c5cc(O)cc(O)c5-c5cc4ccc5O)C(O)c4ccc(c(Cl)c4)Oc4cc3cc(c4OC3OC(CO)C(O)C(O)C3OC3CC(C)(NCc4ccc(-c5ccc(Cl)cc5)cc4)C(O)C(C)O3)Oc3ccc(cc3Cl)C2O)cc1 (stereo not shown) [Compound 273] | – | 2 | – | –
15 | CC1OC(OC2C(Oc3c4cc5cc3Oc3ccc(cc3Cl)C(O)C3NC(=O)C(NC(=O)C5NC(=O)C(CC(N)=O)NC(=O)C(NC(=O)c5ccc(O)nc5)C(O)c5ccc(c(Cl)c5)O4)c4ccc(O)c(c4)-c4c(O)cc(O)cc4C(C(=O)O)NC3=O)OC(CO)C(O)C2O)CC(C)(NCc2ccc(-c3ccc(Cl)cc3)cc2)C1O (stereo not shown) [Compound 276] | – | 2 | – | –
16 | CC(=O)CCCCC(=O)NC1C(=O)NC(CC(N)=O)C(=O)NC2C(=O)NC3C(=O)NC(C(=O)NC(C(=O)O)c4cc(O)cc(O)c4-c4cc3ccc4O)C(O)c3ccc(c(Cl)c3)Oc3cc2cc(c3OC2OC(CO)C(O)C(O)C2OC2CC(C)(NCc3ccc(-c4ccc(Cl)cc4)cc3)C(O)C(C)O2)Oc2ccc(cc2Cl)C1O (stereo not shown) [Compound 278] | 2 | – | 2 | –
17 | CC1OC(OC2C(Oc3c4cc5cc3Oc3ccc(cc3Cl)C(O)C3NC(=O)C(NC(=O)C5NC(=O)C(CC(N)=O)NC(=O)C(NC(=O)c5ccc(=O)oc5)C(O)c5ccc(c(Cl)c5)O4)c4ccc(O)c(c4)-c4c(O)cc(O)cc4C(C(=O)O)NC3=O)OC(CO)C(O)C2O)CC(C)(NCc2ccc(-c3ccc(Cl)cc3)cc2)C1O (stereo not shown) [Compound 282] | 2 | – | 2 | –
18 | COC(=O)C=CC(=O)NC1C(=O)NC(CC(N)=O)C(=O)NC2C(=O)NC3C(=O)NC(C(=O)NC(C(=O)O)c4cc(O)cc(O)c4-c4cc3ccc4O)C(O)c3ccc(c(Cl)c3)Oc3cc2cc(c3OC2OC(CO)C(O)C(O)C2OC2CC(C)(NCc3ccc(-c4ccc(Cl)cc4)cc3)C(O)C(C)O2)Oc2ccc(cc2Cl)C1O (stereo not shown) [Compound 297] | 2 | – | 2 | –
19 | CC1OC(OC2C(Oc3c4cc5cc3Oc3ccc(cc3Cl)C(O)C3NC(=O)C(NC(=O)C5NC(=O)C(CC(N)=O)NC(=O)C(NC(=O)c5ccc(=O)[nH]n5)C(O)c5ccc(c(Cl)c5)O4)c4ccc(O)c(c4)-c4c(O)cc(O)cc4C(C(=O)O)NC3=O)OC(CO)C(O)C2O)CC(C)(NCc2ccc(-c3ccc(Cl)cc3)cc2)C1O (stereo not shown) [Compound 298] | 2 | – | 2 | –
20 | COC(=O)CCCC(=O)NC1C(=O)NC(CC(N)=O)C(=O)NC2C(=O)NC3C(=O)NC(C(=O)NC(C(=O)O)c4cc(O)cc(O)c4-c4cc3ccc4O)C(O)c3ccc(c(Cl)c3)Oc3cc2cc(c3OC2OC(CO)C(O)C(O)C2OC2CC(C)(NCc3ccc(-c4ccc(Cl)cc4)cc3)C(O)C(C)O2)Oc2ccc(cc2Cl)C1O (stereo not shown) [Compound 304] | – | 2 | – | –
21 | COC(=O)CCC(=O)NC1C(=O)NC(CC(N)=O)C(=O)NC2C(=O)NC3C(=O)NC(C(=O)NC(C(=O)O)c4cc(O)cc(O)c4-c4cc3ccc4O)C(O)c3ccc(c(Cl)c3)Oc3cc2cc(c3OC2OC(CO)C(O)C(O)C2OC2CC(C)(NCc3ccc(-c4ccc(Cl)cc4)cc3)C(O)C(C)O2)Oc2ccc(cc2Cl)C1O (stereo not shown) [Compound 305] | – | 2 | – | –
22 | CC1OC(OC2C(Oc3c4cc5cc3Oc3ccc(cc3Cl)C(O)C3NC(=O)C(NC(=O)C5NC(=O)C(CC(N)=O)NC(=O)C(NC(=O)Cc5cccs5)C(O)c5ccc(c(Cl)c5)O4)c4ccc(O)c(c4)-c4c(O)cc(O)cc4C(C(=O)O)NC3=O)OC(CO)C(O)C2O)CC(C)(NCc2ccc(-c3ccc(Cl)cc3)cc2)C1O (stereo not shown) [Compound 318] | – | 2 | – | –
23 | CC1OC(OC2C(Oc3c4cc5cc3Oc3ccc(cc3Cl)C(O)C3NC(=O)C(NC(=O)C5NC(=O)C(CC(N)=O)NC(=O)C(NC(=O)C(N)=O)C(O)c5ccc(c(Cl)c5)O4)c4ccc(O)c(c4)-c4c(O)cc(O)cc4C(C(=O)O)NC3=O)OC(CO)C(O)C2O)CC(C)(NCc2ccc(-c3ccc(Cl)cc3)cc2)C1O (stereo not shown) [Compound 327] | – | 2 | – | –
